Measured values as given in patent publication US20070128217A1 (priority 2003, published 2007).

What was measured:
[1] = tested on: rabbit serum obtained by immunizing a rabbit with the SARS-CoV strain Frankfurt 1; type: binding; parameters: Binding of a rabbit serum to linear peptides / Binding of a rabbit serum to looped peptides / Rabbit serum linear peptides / Rabbit serum looped peptides / Binding of a rabbit serum to linear peptides of protein N of SARS-CoV Urbani (Rabbit serum linear peptides) / Binding of a rabbit serum to looped/cyclic peptides of protein N of SARS-CoV Urbani (Rabbit serum looped peptides): unit not given here
[2] = tested on: control sera (pooled serum of ten healthy LUMC hospital workers; commercial negative donor pooled serum from the Dutch bloodbank); type: binding, human; parameters: Binding of Control serum LUMC to linear peptides / Binding of Control serum Blood-bank to linear peptides / Binding of Control serum LUMC to looped peptides / Binding of Control Serum Blood-Bank to Looped peptides / Binding of Control serum LUMC to linear peptides of the protein M of SARS-CoV Urbani / Binding of Control serum Blood-bank to linear peptides of the protein M of SARS-CoV Urbani / Binding of Control serum LUMC to looped peptides of the protein M of SARS-CoV Urbani / Binding of Control Serum Blood-Bank to Looped peptides of the protein M of SARS-CoV Urbani: unit not given here
[3] = tested on: antibodies in sera from SARS patients (sera 1a, 1b, 2, 6, 37, 62, London, SARS-yellow, SARS-green); type: binding, human; parameters: Binding of serum 6 to linear peptides of protein X1 of SARS-CoV Urbani / Binding of serum 37 to linear peptides of protein X1 of SARS-CoV Urbani / Binding of serum 6 to looped/cyclic peptide (PEPSCAN-ELISA) / Binding of serum 37 to looped/cyclic peptide (PEPSCAN-ELISA) / Binding of serum 37 to looped/cyclic peptides of protein X1 of SARS-CoV Urbani / Binding of serum 6 to linear peptides of protein X2 / Binding of serum 37 to linear peptides of protein X2 / Binding of serum 37 to looped/cyclic peptides of protein X2 of SARS-CoV Urbani / Binding of serum 6 to linear peptides of protein M of SARS-CoV Urbani / Binding of serum 37 to linear peptides of protein M of SARS-CoV Urbani / Binding of serum 6 to looped/cyclic peptides of protein M of SARS-CoV Urbani / Binding of serum 37 to looped/cyclic peptides of protein M of SARS-CoV Urbani / Binding of serum 6 to linear peptides of protein X3 of SARS-CoV Urbani / Binding of serum 37 to linear peptides of protein X3 of SARS-CoV Urbani / Binding of serum 37 to looped/cyclic peptides of protein X3 of SARS-CoV Urbani / Binding of serum 6 to linear peptides of protein X4 of SARS-CoV Urbani / Binding of serum 37 to linear peptides of protein X4 of SARS-CoV Urbani / Binding of serum 37 to looped/cyclic peptides of protein X4 of SARS-CoV Urbani / Binding of serum 6 to linear peptides of protein X5 of SARS-CoV Urbani / Binding of serum 37 to linear peptides of protein X5 of SARS-CoV Urbani / Binding of serum 37 to looped/cyclic peptides of protein X5 of SARS-CoV Urbani / Binding of serum 6 to linear peptides of protein N of SARS-CoV Urbani / Binding of serum 37 to linear peptides of protein N of SARS-CoV Urbani / Binding of serum 6 to linear peptide (PEPSCAN-ELISA) / Binding of serum 1a to looped/cyclic peptides of protein N of SARS-CoV Urbani / Binding of serum 1b to looped/cyclic peptides of protein N of SARS-CoV Urbani / Binding of serum 2 to looped/cyclic peptides of protein N of SARS-CoV Urbani / Binding of serum 6 to looped/cyclic peptides of protein N of SARS-CoV Urbani / Binding of serum 37 to looped/cyclic peptides of protein N of SARS-CoV Urbani / Binding of serum 62 to looped/cyclic peptides of protein N of SARS-CoV Urbani / Binding of serum London to looped/cyclic peptides of protein N of SARS-CoV Urbani / Binding of serum SARS-green to looped/cyclic peptides of protein N of SARS-CoV Urbani: unit not given here

With ILRIGTQVLKTMSLY the “Binding of a rabbit serum to linear peptides” value [1] was 0.3, the “Binding of a rabbit serum to looped peptides” value [1] was 0.5 and the “Binding of Control Serum Blood-Bank to Looped peptides” value [2] was 0.7. For the same sequence, the “Binding of Control serum Blood-bank to linear peptides” value [2] was 0.6, the “Binding of Control serum LUMC to linear peptides” value [2] was 0.4 and the “Binding of Control serum LUMC to looped peptides” value [2] was 0.7. The “Binding of serum 1a to linear peptides of protein X2” value [3] was 0.7, the “Binding of serum 1a to looped/cyclic peptides of protein X2 of SARS-CoV Urbani” value [3] was 0.6 and the “Binding of serum 1b to linear peptides of protein X2” value [3] was 0.5. The “Binding of serum 1b to looped/cyclic peptides of protein X2 of SARS-CoV Urbani” value [3] was 0.5, the “Binding of serum 2 to linear peptides of protein X2” value [3] was 0.4 and the “Binding of serum 2 to looped/cyclic peptides of protein X2 of SARS-CoV Urbani” value [3] was 0.3. The “Binding of serum 6 to linear peptides of protein X2” value [3] was 0.4, the “Binding of serum 6 to looped/cyclic peptides of protein X2 of SARS-CoV Urbani” value [3] was 0.5 and the “Binding of serum 37 to linear peptides of protein X2” value [3] was 0.6. The “Binding of serum 37 to looped/cyclic peptides of protein X2 of SARS-CoV Urbani” value [3] was 0.5, the “Binding of serum 62 to linear peptides of protein X2” value [3] was 0.6 and the “Binding of serum 62 to looped/cyclic peptides of protein X2 of SARS-CoV Urbani” value [3] was 0.6. The “Binding of serum London to linear peptides of protein X2” value [3] was 0.4, the “Binding of serum London to looped/cyclic peptides of protein X2 of SARS-CoV Urbani” value [3] was 0.3 and the “Binding of serum SARS-green to linear peptides of protein X2” value [3] was 0.4. For the same sequence, the “Binding of serum SARS-green to looped/cyclic peptides of protein X2 of SARS-CoV Urbani” value [3] was 0.3, the “Binding of serum SARS-yellow to linear peptides of protein X2” value [3] was 0.5 and the “Binding of serum SARS-yellow to looped/cyclic peptides of protein X2 of SARS-CoV Urbani” value [3] was 0.6.
In the case of IMLLQFAYSNRNRFL, the “Rabbit serum linear peptides” value [1] is reported as 0.2, the “Rabbit serum looped peptides” value [1] is reported as 0.5 and the “Binding of Control Serum Blood-Bank to Looped peptides of the protein M of SARS-CoV Urbani” value [2] is reported as 0.5. The “Binding of Control serum Blood-bank to linear peptides of the protein M of SARS-CoV Urbani” value [2] was 0.5, the “Binding of Control serum LUMC to linear peptides of the protein M of SARS-CoV Urbani” value [2] was 0.6 and the “Binding of Control serum LUMC to looped peptides of the protein M of SARS-CoV Urbani” value [2] was 0.6. The “Binding of serum 1a to linear peptides of protein M of SARS-CoV Urbani” value [3] was 0.7, the “Binding of serum 1a to looped/cyclic peptides of protein M of SARS-CoV Urbani” value [3] was 0.6 and the “Binding of serum 1b to linear peptides of protein M of SARS-CoV Urbani” value [3] was 0.5. The “Binding of serum 1b to looped/cyclic peptides of protein M of SARS-CoV Urbani” value [3] was 0.4, the “Binding of serum 2 to linear peptides of protein M of SARS-CoV Urbani” value [3] was 0.4 and the “Binding of serum 2 to looped/cyclic peptides of protein M of SARS-CoV Urbani” value [3] was 0.6. For the same sequence, the “Binding of serum 6 to linear peptides of protein M of SARS-CoV Urbani” value [3] was 0.4, the “Binding of serum 6 to looped/cyclic peptides of protein M of SARS-CoV Urbani” value [3] was 1.0 and the “Binding of serum 37 to linear peptides of protein M of SARS-CoV Urbani” value [3] was 0.4. For the same sequence, the “Binding of serum 37 to looped/cyclic peptides of protein M of SARS-CoV Urbani” value [3] was 0.6, the “Binding of serum 62 to linear peptides of protein M of SARS-CoV Urbani” value [3] was 0.3 and the “Binding of serum 62 to looped/cyclic peptides of protein M of SARS-CoV Urbani” value [3] was 0.5. The “Binding of serum London to linear peptides of protein M of SARS-CoV Urbani” value [3] was 0.3, the “Binding of serum London to looped/cyclic peptides of protein M of SARS-CoV Urbani” value [3] was 0.6 and the “Binding of serum SARS-green to linear peptides of protein M of SARS-CoV Urbani” value [3] was 0.4. The “Binding of serum SARS-green to looped/cyclic peptides of protein M of SARS-CoV Urbani” value [3] was 0.3, the “Binding of serum SARS-yellow to linear peptides of protein M of SARS-CoV Urbani” value [3] was 0.2 and the “Binding of serum SARS-yellow to looped/cyclic peptides of protein M of SARS-CoV Urbani” value [3] was 0.6.
In the case of INACRIIMRCWLCWK, the “Recognition of the peptide by the rabbit serum” value [1] is reported as “recognized”, the “Binding of Control Serum Blood-Bank to Looped peptides” value [2] is reported as 0.7 and the “Binding of Control serum Blood-bank to linear peptides” value [2] is reported as 0.9. For the same sequence, the “Binding of Control serum LUMC to linear peptides” value [2] was 0.4, the “Binding of Control serum LUMC to looped peptides” value [2] was 0.6 and the “Binding of serum 1a to looped/cyclic peptide (PEPSCAN-ELISA)” value [3] was 0.6. For the same sequence, the “Binding of serum 1b to looped/cyclic peptide (PEPSCAN-ELISA)” value [3] was 0.4, the “Binding of serum 2 to looped/cyclic peptide (PEPSCAN-ELISA)” value [3] was 0.6 and the “Binding of serum 6 to looped/cyclic peptide (PEPSCAN-ELISA)” value [3] was 0.6. The “Binding of serum 37 to looped/cyclic peptide (PEPSCAN-ELISA)” value [3] was 0.5, the “Binding of serum 62 to looped/cyclic peptide (PEPSCAN-ELISA)” value [3] was 0.6 and the “Binding of serum London to looped/cyclic peptide (PEPSCAN-ELISA)” value [3] was 0.4. For the same sequence, the “Binding of serum SARS-green to looped/cyclic peptide (PEPSCAN-ELISA)” value [3] was 0.3, the “Binding of serum SARS-yellow to looped/cyclic peptide (PEPSCAN-ELISA)” value [3] was 0.5 and the “Recognition of the peptide by sera of SARS-CoV infected individuals, and form (linear, looped/cyclic) in which it is recognized” value [3] was “recognized in linear form”.
